Key:
SW-620 = assay: Cytotoxicity against human SW620 cells assessed as cell growth inhibition incubated for 48 hrs by MTT assay; type: functional, cell-based; conditions: SW-620, 48 h
NCI-H460 = assay: Cytotoxicity against human NCI-H460 cells assessed as cell growth inhibition incubated for 48 hrs by MTT assay; type: functional, cell-based; conditions: NCI-H460, 48 h
Candida albicans = assay: Antifungal activity against Candida albicans ATCC10231 assessed as fungal growth inhibition incubated for 24 hrs by spectrophotometric analysis; type: functional, organism-based; conditions: ATCC10231, 24 h
Escherichia coli = assay: Antibacterial activity against gram negative Escherichia coli ATCC11775 assessed as bacterial growth inhibition incubated for 24 hrs by spectrophotometric analysis; type: functional, organism-based; conditions: ATCC11775, 24 h
Staphylococcus aureus = assay: Antibacterial activity against gram positive Staphylococcus aureus ATCC25923 assessed as bacterial growth inhibition incubated for 24 hrs by spectrophotometric analysis; type: functional, organism-based; conditions: ATCC25923, 24 h

Measured: IC50

CO[C@@]12c3c(C)cc(O)c4c(=O)n([C@H]5CO[C@H](CO)[C@@H](O)[C@@H]5O)cc(c34)C(=O)[C@@H]1[C@]13COC(=O)c4c(O)cc(C)c(c41)C(=O)[C@H]2[C@@H]3O
> 30 µM: all assays above

CC(=O)O[C@H]1[C@@H]2C(=O)c3c(C)cc(O)c4c3[C@@]1(COC4=O)C1=C2c2c(C)cc(O)c3c(=O)n([C@H]4CO[C@H](CO)[C@@H](O)[C@@H]4O)cc(c23)C1=O
> 30 µM: all assays above

CO[C@@]12c3c(C)cc(O)c4c(=O)n([C@H]5CO[C@H](CO)[C@@H](O)[C@@H]5O)cc(c34)C(=O)[C@@H]1[C@]13COC(=O)c4c(O)cc(C)c(c41)C(=O)[C@H]2[C@@H]3OC(C)=O
> 30 µM: all assays above

CC(=O)OC[C@H]1OC[C@H](n2cc3c4c(c(C)cc(O)c4c2=O)C2=C(C3=O)[C@]34COC(=O)c5c(O)cc(C)c(c53)C(=O)[C@H]2[C@@H]4OC(C)=O)[C@@H](O)[C@@H]1O
> 30 µM: all assays above

Cc1cc(O)c2c3c1C(=O)[C@@H]1C4=C(C(=O)c5cn([C@H]6CO[C@H](CO)[C@@H](O)[C@@H]6O)c(=O)c6c(O)cc(C)c4c56)[C@@]3(COC2=O)[C@H]1O
> 30 µM: all assays above

CO[C@@]12c3c(C)cc(O)c4c(=O)occ(c34)C(=O)[C@@H]1[C@]13COC(=O)c4c(O)cc(C)c(c41)C(=O)C2[C@@H]3OC(C)=O
> 30 µM: all assays above

Source: ChEMBL document CHEMBL5252582, “Glyclauxins A-E: Dimeric Oxaphenalenone Aminoglycosides from an Australian Wasp Nest-Derived Fungus Talaromyces sp. CMB-MW102” (J Nat Prod, 2023)
